Experimental data: ChEMBL document CHEMBL1667742, “Angiotensin II receptor type 1 (AT1) selective nonpeptidic antagonists--a perspective” (Bioorg Med Chem, 2010)
Changes are numbered by the printed parent chain. Blank lines part the entries; values can stand above or below the molecule they belong to.

Legend:
[1] = Antagonist activity at angiotensin AT1 receptor in rat aorta; type: functional, tissue-based
[2] = Binding affinity to angiotensin AT1 receptor in rat adrenal cortical membranes; type: cell membranes
Rattus norvegicus [3] = assay: Antihypertensive activity in po dosed conscious rat; type: functional; conditions: read-out: ID50 (the source's name)
[4] = molecular target: T1, Type-1 angiotensin II receptor (Bos taurus) (UniProt P25104); assay: Binding affinity to angiotensin AT1 receptor in bovine adrenal cortex membranes; type: cell membranes; conditions: Membrane
T1 sequence (whole entry): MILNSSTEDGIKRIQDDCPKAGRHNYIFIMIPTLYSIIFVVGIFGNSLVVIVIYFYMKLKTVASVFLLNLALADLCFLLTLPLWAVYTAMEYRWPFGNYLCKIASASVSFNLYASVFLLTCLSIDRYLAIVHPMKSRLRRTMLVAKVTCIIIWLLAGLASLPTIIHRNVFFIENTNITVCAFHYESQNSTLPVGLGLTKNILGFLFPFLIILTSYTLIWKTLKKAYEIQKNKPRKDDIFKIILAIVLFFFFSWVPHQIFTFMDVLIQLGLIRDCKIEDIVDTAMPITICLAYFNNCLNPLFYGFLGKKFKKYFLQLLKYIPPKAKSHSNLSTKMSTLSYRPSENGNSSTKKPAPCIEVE

[5] = molecular target: T2, Type-1 angiotensin II receptor (Oryctolagus cuniculus, UniProt P34976); assay: Antagonist activity at angiotensin AT1 receptor in rabbit aorta assessed as reduction of angiotensin 2-induced contractile response; type: functional, tissue-based; conditions: read-out: pA2 (converted)
T2 sequence (P34976 whole entry): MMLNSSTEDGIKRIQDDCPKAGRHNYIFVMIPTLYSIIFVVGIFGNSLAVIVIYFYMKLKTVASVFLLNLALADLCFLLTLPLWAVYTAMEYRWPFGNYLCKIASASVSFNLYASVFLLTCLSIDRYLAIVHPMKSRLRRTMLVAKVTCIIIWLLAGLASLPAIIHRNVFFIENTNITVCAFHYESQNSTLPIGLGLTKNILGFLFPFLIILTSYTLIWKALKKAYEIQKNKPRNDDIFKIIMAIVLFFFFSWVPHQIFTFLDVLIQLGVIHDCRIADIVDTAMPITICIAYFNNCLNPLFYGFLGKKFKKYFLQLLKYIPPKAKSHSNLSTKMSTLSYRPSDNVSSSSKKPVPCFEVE

[6] = molecular target: T2, Type-1 angiotensin II receptor; assay: Binding affinity to angiotensin AT1 receptor in rabbit aortic rings
[7] = Binding affinity to angiotensin AT1 receptor in rat liver membranes; type: cell membranes, Membrane
[8] = molecular target: T3, Type-1 angiotensin II receptor (Homo sapiens, UniProt P30556); assay: (§1) Antagonist activity at angiotensin AT1 receptor; type: functional; conditions: for Kb: read-out: pA2 (converted)
T3 sequence (P30556 whole entry): T2 sequence (P34976 whole entry) with M2I, A49V, V254I, V270I, H272R, K311R, S349T, V353A

[9] = molecular target: T3, Type-1 angiotensin II receptor; assay: Binding affinity to angiotensin AT1 receptor
[10] = molecular target: T2, Type-1 angiotensin II receptor; assay: (§2) Antagonist activity at angiotensin AT1 receptor in rabbit aorta; type: functional, tissue-based; conditions: read-out: pA2 (converted)
[11] = molecular target: T4, Type-1 angiotensin II receptor (Oryctolagus cuniculus) (UniProt P34976); assay: as §2; type: functional, tissue-based
T4 sequence (whole entry): T2 sequence (P34976 whole entry)

Rattus norvegicus [12] = assay: Ratio of compound ED50 to losartan ED50 for po dosed renal hypertensive rat model; type: functional
[13] = molecular target: T5, Type-2 angiotensin II receptor (Homo sapiens, UniProt P50052); assay: Binding affinity to angiotensin AT2 receptor
T5 sequence (P50052 whole entry): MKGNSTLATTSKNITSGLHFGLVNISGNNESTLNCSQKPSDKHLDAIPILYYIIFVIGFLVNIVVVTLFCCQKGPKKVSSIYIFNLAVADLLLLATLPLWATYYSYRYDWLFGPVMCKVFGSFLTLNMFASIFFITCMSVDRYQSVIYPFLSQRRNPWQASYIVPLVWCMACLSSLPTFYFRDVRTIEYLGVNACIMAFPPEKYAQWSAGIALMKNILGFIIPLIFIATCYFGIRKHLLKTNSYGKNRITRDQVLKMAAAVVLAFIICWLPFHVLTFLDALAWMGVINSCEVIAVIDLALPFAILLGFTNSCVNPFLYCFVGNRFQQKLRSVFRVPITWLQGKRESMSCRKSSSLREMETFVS

Rattus norvegicus [14] = assay: Antihypertensive activity in iv dosed renal hypertensive rat model; type: functional
[15] = Displacement of radiolabeled angiotensin2 from angiotensin AT1 receptor in rat adrenal cortex membranes; type: cell membranes, Membrane
[16] = Selectivity ratio of IC50 for angiotensin AT1 receptor to IC50 for angiotensin AT2 receptor
[17] = molecular target: T6, Type-1 angiotensin II receptor (Homo sapiens) (UniProt P30556); assay: as §1; type: functional
T6 sequence (whole entry): T2 sequence (P34976 whole entry) with M2I, A49V, V254I, V270I, H272R, K311R, S349T, V353A

[18] = molecular target: T6, Type-1 angiotensin II receptor (Homo sapiens); assay: Ratio of compound Ki to losartan Ki for angiotensin AT1 receptor

Compound: CCOc1nc2cccc(C(=O)O)c2n1Cc1ccc(-c2ccccc2-c2noc(=O)[nH]2)cc1 [AZILSARTAN]
ED50 (Rattus norvegicus [3]): 0.04 mg/kg
Activity [4]: 4.2 nM

Compound: CCCCCc1nc(SCc2ccc(-c3ccccc3C(=O)O)cc2)nn1Cc1ccc(-c2ccccc2C(=O)O)cc1
Kb [5]: 3.98 nM

Compound: CCCCC1=N[C@](C)(C2CCCCC2)C(=O)N1Cc1ccc(-c2ccccc2-c2nnn[nH]2)cc1
IC50 [6]: 0.77 nM

Compound: CCc1nc2c(C)cc(C)nc2n1Cc1ccc(-c2c(-c3nn[nH]n3)cnc3ccccc23)cc1
IC50 [7]: 0.4 nM

Compound: CCCCc1nc(CCCC)n(Cc2ccc(-c3ccccc3-c3nnn[nH]3)cc2)n1
Kb [8]: 2 nM
IC50 [9]: 5.6 nM

Compound: CCCCCCC(C(=O)O)n1cnc(NC(=O)c2cccc(O)c2C(=O)O)c1 (centres undefined)
Kb [10]: 100 nM

Compound: CCCc1nc2ccccc2n1C(F)(F)C(O)c1ccc(-c2ccccc2-c2nnn[nH]2)cc1 (centres undefined)
Ki [13]: 480 nM
ED30 (Rattus norvegicus [14]): 2 mg/kg
Ki [9]: 29 nM

Compound: CCc1nc2c(C)cc(C)nc2n1Cc1ccc2c(c1)CCN2C(c1ccccc1)c1nnn[nH]1 (centres undefined)
IC50 [6]: 1 nM

Compound: CCCc1nc2c(n1Cc1ccc(-c3ccccc3-c3nnn[nH]3)cc1)C(=O)CCCC2 [PRATOSARTAN]
Kb [10]: 0.0912 nM

Compound: CCCCc1nc(Cl)c2n1C(c1ccc(-c3ccccc3-c3nnn[nH]3)cc1)CC(C(=O)O)=C2 (centres undefined)
IC50 [13]: 10 nM

Compound: CCCCc1cn(CCCC)c(=O)n1Cc1ccc(-c2ccccc2-c2nnn[nH]2)cc1 [SC-51895]
Kb [8]: 2.24 nM
IC50 [9]: 12 nM

Compound: CCCCc1nc2ccn(CC(=O)N3CCCCC3)c(=O)c2n1Cc1ccc(-c2ccccc2S(=O)(=O)NC(=O)OCc2ccccc2)cc1F
IC50 [13]: 3.5 nM
Ratio IC50 [16]: 0.74
IC50 [9]: 4.7 nM

Compound: CCCCc1nc(C)n(Cc2sccc2C(=O)OC)c(=O)c1Cc1ccc(-c2ccccc2-c2nnn[nH]2)cc1
Ki [2]: 0.9 nM

Compound: CCc1nc2c(C)cc(C)nc2n1Cc1ccc(-c2ccccc2S(=O)(=O)NC(=O)c2ccccc2)cc1
Kb [10]: 0.0501 nM

Compound: CCCCc1nc(Cl)c2n1C(c1ccc(-c3ccccc3-c3nnn[nH]3)cc1)CC=C2C(=O)O (centres undefined)
IC50 [13]: 50 nM

Compound: CCc1cc(OCc2ccc(-c3ccccc3-c3nnn[nH]3)cc2)c2ccccc2n1
Kb [10]: 5.01 nM

Now from value to molecule, other results behind:

Ki [2]: 2.6 nM
Compound: CCCCc1c(Cc2ccc(-c3ccccc3-c3nn[nH]n3)cc2)[n+]([O-])c2ccccc2[n+]1[O-]
Kb [1]: 2.1 nM

Kb [11]: 0.08 nM
Ki [2]: 8.5 nM
Compound: CCCSC1=NS(=O)(=O)c2ccc(C(=O)O)cc2N1Cc1ccc(-c2ccccc2-c2nn[nH]n2)cc1

IC50 [8]: 0.4 nM
Compound: CCc1nn(Cc2ccc(-c3ccccc3-c3nn[nH]n3)cc2)/c(=N/C(=O)C2=C(C(=O)[O-])CCC2)s1.[K+]
Ratio ED50 (Rattus norvegicus [12]): 10

IC50 [15]: 6 nM
Compound: CCCc1nc(CC)c(C(=O)O)n1Cc1ccc(-c2ccccc2-c2nn[nH]n2)cc1
Ratio ED50 (Rattus norvegicus [12]): 20

Ki [13]: 4.5 nM
Compound: CCCCc1nc2ccccc2[n+]([O-])c1Oc1ccc(-c2ccccc2-c2nn[nH]n2)cc1

IC50 [15]: 3.1 nM
Compound: CCCc1nc(C(F)(F)C(F)(F)F)c(C(=O)O)n1Cc1ccc(-c2ccccc2-c2nn[nH]n2)cc1

Ratio IC50 [16]: 3000
Compound: CCc1nc2ccc(N(Cc3ccccc3)C(=O)c3cccs3)cc2c(=O)n1Cc1ccc(-c2ccccc2-c2nn[nH]n2)cc1

pD2 [17]: 9.97
IC50 [9]: 110 nM
Ratio Ki [18]: 10
Compound: CCOc1nc2cccc(C(=O)O)c2n1Cc1ccc(-c2ccccc2-c2nnn[nH]2)cc1

Kb [10]: 1.51 nM
Compound: CCc1nc2c(CC)cn(Cc3ccc(-c4ccccc4-c4nn[nH]n4)cc3)n2n1

Kb [8]: 126 nM
Compound: C[C@@H]1CN(Cc2ccc(-c3ccccc3-c3nn[nH]n3)cc2)C[C@H](C)O1
